From patent US8530491B2, “Antimalarial compounds with flexible side-chains” (Medicines for Malaria Venture (MMV), priority 2007, dated 2013)
≈ marks a conversion by molar mass, not a printed value. Where two headings read alike, the source gives them in different places.

How the values were obtained:
[1] = tested on: P. falciparum TM4/8.2 (wild type); assay: In vitro anti-plasmodial activity, [3H]-hypoxanthine incorporation; assay type: cell-based, Plasmodium falciparum
[2] = Oral bioavailability and pharmacokinetics in male Sprague Dawley rats; assay type: in vivo; conditions: for Oral BA: i.v. and oral dosing; for Vd / clearance / half-life: rat, plasma; for Vd: intravenous; for clearance / half-life: iv, i.v. dosing; for clearance: read-out: i.v. CL(plasma); for half-life: read-out: i.v. t1/2 (converted)
Procedure: Rats had free access to water throughout the pre- and post-dose sampling period, and access to food was re-instated 4 hours post-dosing. Test compounds were administered intravenously as a 5 minute constant rate infusion (1.0 mL per rat) and orally by gavage (1.0 mL per rat). The IV formulations were typically buffered aqueous solutions containing a co-solvent if required for solubilization. The oral formulations were prepared as suspensions in hydroxypropylmethyl cellulose or carboxymethyl cellulose, each with the addition of Tween 80 and benzyl alcohol. Samples of arterial blood and total urine were collected up to 24 hours post-dose. Arterial blood was collected directly into borosilicate vials (at 4° C.) containing heparin, a protease inhibitor cocktail, potassium fluoride, and EDTA to minimise the potential for ex vivo degradation of the test compound in blood/plasma samples. Once collected, blood samples were centrifuged, supernatant plasma was removed and stored at −20° C., and plasma concentrations of test compound were determined by LCMS.

[3] = tested on: E. coli; assay: Antibacterial activity, minimal inhibitory concentration on agar plates; assay type: cell-based; conditions: Escherichia coli; complete inhibition of growth on agar plates
[4] = target: T1, Pf DHFR N51I + C59R + S108N + I164L (Plasmodium falciparum, UniProt A7UD81, C59R/I164L/N51I/S108N); assay: biochemical
T1 construct: made in house; host or cells: E. coli BL21(DE3)pLysS
T1 sequence (A7UD81 whole entry N51I/C59R/S108N/I164L): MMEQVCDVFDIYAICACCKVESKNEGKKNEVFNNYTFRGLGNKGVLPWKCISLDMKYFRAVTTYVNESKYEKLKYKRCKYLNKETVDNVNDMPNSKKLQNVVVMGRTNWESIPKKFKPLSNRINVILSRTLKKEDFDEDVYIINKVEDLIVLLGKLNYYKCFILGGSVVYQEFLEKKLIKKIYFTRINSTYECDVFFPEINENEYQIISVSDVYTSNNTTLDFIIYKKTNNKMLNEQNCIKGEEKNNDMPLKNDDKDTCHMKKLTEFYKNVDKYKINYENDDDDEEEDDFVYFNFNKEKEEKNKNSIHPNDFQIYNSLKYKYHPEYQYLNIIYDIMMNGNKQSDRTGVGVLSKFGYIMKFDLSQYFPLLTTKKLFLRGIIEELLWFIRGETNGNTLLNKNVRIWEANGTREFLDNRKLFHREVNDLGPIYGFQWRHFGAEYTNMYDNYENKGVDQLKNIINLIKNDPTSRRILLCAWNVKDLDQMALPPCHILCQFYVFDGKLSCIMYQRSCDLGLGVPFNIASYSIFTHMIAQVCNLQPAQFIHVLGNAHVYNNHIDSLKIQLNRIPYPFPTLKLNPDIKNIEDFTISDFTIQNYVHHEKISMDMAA

[5] = tested on: S. aureus; assay: Antibacterial activity, minimal inhibitory concentration on agar plates; assay type: cell-based; conditions: Staphylococcus aureus; complete inhibition of growth on agar plates
[6] = target: T2, Pf DHFR WT (Plasmodium falciparum, UniProt A7UD81); assay: Pf DHFR enzyme inhibition (Ki), wild type; assay type: biochemical
T2 construct: made in house; host or cells: E. coli BL21(DE3)pLysS
T2 sequence (A7UD81 1-608): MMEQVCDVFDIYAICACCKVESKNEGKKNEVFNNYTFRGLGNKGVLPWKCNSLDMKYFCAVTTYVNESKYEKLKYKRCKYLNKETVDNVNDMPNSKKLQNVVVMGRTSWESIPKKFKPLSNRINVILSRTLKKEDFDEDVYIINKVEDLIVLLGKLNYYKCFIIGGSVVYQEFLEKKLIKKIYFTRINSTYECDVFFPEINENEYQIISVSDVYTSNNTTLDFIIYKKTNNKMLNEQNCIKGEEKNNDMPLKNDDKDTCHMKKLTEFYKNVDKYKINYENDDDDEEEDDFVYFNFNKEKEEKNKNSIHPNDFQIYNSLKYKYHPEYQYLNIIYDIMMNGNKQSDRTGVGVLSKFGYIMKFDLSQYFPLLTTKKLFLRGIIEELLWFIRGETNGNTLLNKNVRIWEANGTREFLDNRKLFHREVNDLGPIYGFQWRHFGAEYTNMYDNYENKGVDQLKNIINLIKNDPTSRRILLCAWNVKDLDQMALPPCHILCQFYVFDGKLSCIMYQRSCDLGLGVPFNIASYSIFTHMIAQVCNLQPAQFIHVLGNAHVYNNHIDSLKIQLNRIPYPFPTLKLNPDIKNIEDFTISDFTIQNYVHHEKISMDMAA

[7] = Cytotoxicity in mammalian cells; assay type: cell-based; conditions: African green monkey, Vero cells (African green monkey kidney epithelial cells)
[8] = tested on: P. chabaudi AS; assay: Standard 4-day Peters' test against P. chabaudi AS in mice; assay type: in vivo, Plasmodium chabaudi; conditions: for ED50 / ED90: Plasmodium chabaudi, 96 h, oral, 4-day Peters' test; for ED50: 50% reduction in parasitaemia; for ED90: 90% reduction in parasitaemia; for ED90 P. chabaudi AS, oral: oral administration, mice (Table 1)
Procedure: (§1) Briefly, 20 gr CD1 male mice (Charles Rivers, UK) were kept in specific pathogen-free conditions and fed ad libitum. For oral administration, compounds were dissolved in standard suspending formula (SSV) [0.5% sodium carboxymethylcellulose, 0.5% benzyl alcohol, 0.4% Tween 80, 0.9% NaCl (all Sigma)] and for intraperitoneal or subcutaneous administration compounds were dissolved in 0.5% w/v hydroxypropylmethylcellulose, 0.4% v/v Tween 80, 0.5% V/v benzyl alcohol in de-ionised water]. Mice were infected intravenously with 4×10^6 infected red cells and treated orally (p.o.) with 0.2 ml of a solution of the test compounds two hours (day 0) and on days 1, 2 and 3 post-infection. Parasitaemia was determined by microscopic examination of Giemsa stained blood films taken on day 4. Microscopic counts of blood films from each mouse were processed using GraphPad Prism 4 (GraphPad Software, Inc., CA, USA) and expressed as percentages of inhibition from the arithmetic mean parasitaemias of each group in relation to the untreated group. Compounds were tested in an initial screening at 30 mg/kg/day against P. chabaudi AS (non-resistant) over the period described and percentages of inhibition calculated in relation to the untreated controls. Compounds giving 80% inhibition or above were then tested in the same model under a range of doses over the period described in order to obtain dose response curves and calculate their ED50 and ED90 values. […] From the ED90 values is clear that a number of compounds have exquisite activity in this model and are also tested in P. chabaudi ASP and P. berghei ANKA.

[9] = Pharmacokinetics of P218 / pro-drug P195 in male Swiss outbred mice; assay type: in vivo
Procedure: In a separate study, the oral bioavailability of P195, the ester pro-drug of P218 which contains a carboxylic acid side chain was investigated in mice. Male Swiss outbred mice were administered P218 (the free acid) intravenously by bolus tail vein injection at a nominal dose of 5 mg/kg and P195 (the ester pro-drug) orally by gavage at a nominal dose of 20 mg/kg. […] Blood sampling was conducted by cardiac puncture with a single sample per mouse, and two mice per time point over 16 hours post dosing. Blood samples were separated and plasma analyzed by LCMS as described above. The plasma concentration versus time profiles for P218 following IV administration of P218 and following oral administration of the pro-drug P195 are shown in FIG. 9. Plasma concentrations of P218 remained above the lower limit of quantitation (LLQ=0.0014 μM) for 7.5 h following IV administration.

[10] = tested on: P. chabaudi AS; assay: Standard 4-day Peters' test against P. chabaudi AS in mice; assay type: in vivo, Plasmodium chabaudi; conditions: s.c. administration, mice (Table 1)
[11] = rat, in vivo
[12] = tested on: P. falciparum Wild Type; assay: Anti-malarial activity against P. falciparum in vitro, wild type (Table 1); assay type: cell-based, Plasmodium falciparum
[13] = tested on: P. falciparum Resistant mutant; assay: Anti-malarial activity against P. falciparum in vitro, resistant mutant (Table 1); assay type: cell-based, Plasmodium falciparum; conditions: read-out: IC50 against P. falciparum in vitro, Resistant mutant
[14] = tested on: P. chabaudi ASP; assay: Standard 4-day Peters' test against P. chabaudi ASP (pyrimethamine-resistant) in mice; assay type: in vivo, Plasmodium chabaudi
Procedure: as §1

[15] = tested on: P. berghei ANKA; assay: Standard 4-day Peters' test against P. berghei ANKA in mice; assay type: in vivo, Plasmodium berghei; conditions: oral, lethal non-resistant strain
Procedure: as §1

[16] = Plasmodium falciparum, read-out: IC50-P. falciparum TM4/8.2 (WT), TM4/8.2

SMILES | MIC [3] [µM] | Ki [4] [nM] | IC50 [1, 16] [nM] | MIC [5] [µM] | Ki [6] [nM] | IC50 [7] [nM] | ED50 [8] [mg/kg] | ED90 [8] [mg/kg] | other results
CCN(CC)CCCC(C)Nc1ccnc2cc(Cl)ccc12 (centres unmarked) [Chloroquine, chloroquine, reference compound] |  |  |  |  |  |  |  |  | IC50 ([1]; Plasmodium falciparum, read-out: IC50-P. falciparum TM4/8.2 (WT)): 27 nM
CCc1nc(N)nc(N)c1OCCCOc1ccnc2ccc(F)cc12 [Compound P153, 2,4-diamino-6-ethyl-5-(3-(6-fluoro-quinolin-4-yloxy)propoxy)pyrimidine] | 10 to 50 (≈ 3.57 to 17.9 µg/mL) | 3.41 ± 0.27 | 0.25 ± 0.1 | 10 to 50 (≈ 3.57 to 17.9 µg/mL) | 1.41 ± 0.13 | 37 | 0.006 | 0.013 | Oral BA [2]: 26 % of dose; Vd [2]: 17.3 L/kg; clearance [2]: 4.18 L/h/kg; half-life [2]: 15.7 h
CCc1nc(N)nc(N)c1OCCCOc1cc(C)nc2ccccc12 [Compound P154, 2,4-diamino-6-ethyl-5-(3-(2-methylquinolin-4-yloxy)propoxy)pyrimidine] | 10 to 50 (≈ 3.53 to 17.7 µg/mL) | 4.8 ± 0.36 | 2 ± 0.8 | > 50 | 1.29 ± 0.14 | 94 | 0.006 | 0.043 | Oral BA [2]: 9.3 % of dose; Vd [2]: 8.8 L/kg; clearance [2]: 5.05 L/h/kg; half-life [2]: 3.2 h
CCc1nc(N)nc(N)c1OCCCOc1cc(C)nc2cc(F)ccc12 [Compound P157, 2,4-diamino-6-ethyl-5-(3-(7-fluoro-2-methylquinolin-4-yloxy)propoxy)pyrimidine] | > 25 | 3.95 ± 0.06 | 2.4 ± 0.7 | > 25 | 1.26 ± 0.24 | 100 | 0.008 | 0.012 | Oral BA [2]: 25.5 % of dose; Vd [2]: 15.2 L/kg; clearance [2]: 4.48 L/h/kg; half-life [2]: 17.6 h
CCc1nc(N)nc(N)c1OCCCOc1cc(C)nc2ccc(OCCCC(=O)O)cc12 [Compound P169, 2,4-diamino-6-ethyl-5-(3-(6-(3-carboxypropoxy)-2-methylquinolin-4-yloxy)propoxy)pyrimidine] |  | 0.36 ± 0.01 | 0.22 ± 0.06 |  | 0.15 ± 0.04 | 420 | > 29 | > 29 | IC50 ([1]; read-out: IC50-P. falciparum TM4/8.2 (WT), TM4/8.2): 0.3 ± 0.1 nM
CCOC(=O)CCc1ccccc1OCCCOc1c(N)nc(N)nc1CC [Compound P195, 2,4-diamino-6-ethyl-5-(3-(2-(2-ethoxycarbonylethyl)phenoxy)propoxy)pyrimidine] |  | 1.88 ± 0.13 | 2.5 ± 0.7 |  | 0.26 ± 0.02 | 1250 | 0.21 | 0.69 | plasma concentrations of the pro-drug P195 ([9]; oral P195 20 mg/kg, all time points, below lower limit of quantitation): < 1.4 nM
CCOC(=O)CCCOc1ccccc1OCCCOc1c(N)nc(N)nc1CC [Compound P217, 2,4-diamino-6-ethyl-5-(3-(2-(3-ethoxycarbonylpropoxy)phenoxy)propoxy)pyrimidine] |  | 3.3 ± 0.52 | 4 |  | 0.69 ± 0.1 | 5330 | < 0.63 | < 0.63 | 
CCc1nc(N)nc(N)c1OCCCOc1ccccc1CCC(=O)O [Compound P218, 2,4-diamino-6-ethyl-5-(3-(2-(2-carboxyethyl)phenoxy)propoxy)pyrimidine] |  | 0.54 ± 0.12 | 6 |  | 0.43 ± 0.07 | > 10000 | < 0.63 | < 0.63 | time plasma concentration of P218 remained above LLQ following oral administration of ester prodrug ([9]; P195 oral 20 mg/kg, mice, LLQ=0.0014 μM): 16 h; time plasma concentrations of P218 remained above LLQ following IV administration ([9]; P218 IV 5 mg/kg, mice, LLQ=0.0014 μM): 7.5 h; bioavailability ([9]; male, Swiss outbred, mouse, plasma, oral, 20 mg/kg): ~50%
CCOC(=O)CCCOc1ccc2nc(C)cc(OCCCOc3c(N)nc(N)nc3CC)c2c1 [Compound P219, 2,4-diamino-6-ethyl-5-(3-(6-(3-ethoxycarbonylpropoxy)-2-methylquinolin-4-yloxy)propoxy)pyrimidine] |  | 1.25 ± 0.22 | < 10 |  | 0.52 ± 0.08 |  | > 5 | > 5 | 
CC1(C)N=C(N)N=C(N)N1c1ccc(Cl)cc1 [Cycloguanil, cycloguanil] |  |  |  |  |  |  |  |  | ED90 P. chabaudi AS, s.c. [10]: 3.7 mg/kg; Oral BA in rats [11]: 59.3%; IC50 ([12]; Plasmodium falciparum): 37 nM; IC50 ([13]; Plasmodium falciparum): > 100000 nM; ED90 P. chabaudi AS, oral [8]: 6.2 mg/kg
C[C@H]1[C@@H](O)O[C@@H]2O[C@@]3(C)CC[C@H]4[C@H](C)CC[C@@H]1[C@@]24OO3 [Dihydroartemisinin, reference compound] |  |  |  |  |  |  |  |  | IC50 ([1]; Plasmodium falciparum, read-out: IC50-P. falciparum TM4/8.2 (WT), TM4/8.2, listed as printed in nM): 1.69 ± 0.39 nM
CCc1nc(N)nc(N)c1-c1ccc(Cl)cc1 [Pyrimethamine, pyrimethamine, reference compound] | > 50 |  | 58 ± 30 | > 50 |  |  | 0.25 | 0.88 | ED50 ([14]; Plasmodium chabaudi, po, read-out: ED50 P. chabaudi ASP): 1.8 mg/kg; ED90 P. chabaudi ASP ([14]; oral, pyrimethamine-resistant strain): 13.5 mg/kg; ED90 P. chabaudi AS, s.c. [10]: 0.25 mg/kg; Oral BA in rats [11]: ~100%; IC50 ([12]; Plasmodium falciparum): 79 nM; IC50 ([13]; Plasmodium falciparum): > 100000 nM; ED50 ([15]; Plasmodium berghei): 0.5 mg/kg; ED90 P. berghei ANKA [15]: 3.2 mg/kg; ED90 P. chabaudi AS, oral [8]: 0.88 mg/kg
COc1cc(Cc2cnc(N)nc2N)cc(OC)c1OC [Trimethoprim, trimethoprim, reference compound] | 1 to 10 (≈ 0.29 to 2.9 µg/mL) |  |  | 1 to 10 (≈ 0.29 to 2.9 µg/mL) |  |  |  |  | 
CC1(C)N=C(N)N=C(N)N1OCCCOc1cc(Cl)c(Cl)cc1Cl [WR99210] |  |  |  |  |  |  |  |  | ED90 P. chabaudi AS, s.c. [10]: 1.1 mg/kg; Oral BA in rats [11]: <1%; IC50 ([12]; wild type): 0.6 nM; IC50 ([13]; resistant mutant): 18 nM; ED90 P. chabaudi AS, oral [8]: 74.2 mg/kg
